Measured values as given in patent US7642251B2, “Compounds for the treatment of hepatitis C” (Bristol-Myers Squibb Company, priority 2007, dated 2010).
Like-named read-outs stand apart in the source and are kept apart here.

Experiments:
[1] = target: T1, HCV NS5B (Hepatitis C virus genotype 1b, UniProt Q9WMX2); assay: Modified HCV NS5B RdRp enzyme assay (preincubation protocol); type: biochemical
T1 construct: The cDNA encoding the NS5B protein of HCV, genotype 1b; made in house; host or cells: E. coli BL21(DE3)
T1 sequence (Q9WMX2 2420-2992): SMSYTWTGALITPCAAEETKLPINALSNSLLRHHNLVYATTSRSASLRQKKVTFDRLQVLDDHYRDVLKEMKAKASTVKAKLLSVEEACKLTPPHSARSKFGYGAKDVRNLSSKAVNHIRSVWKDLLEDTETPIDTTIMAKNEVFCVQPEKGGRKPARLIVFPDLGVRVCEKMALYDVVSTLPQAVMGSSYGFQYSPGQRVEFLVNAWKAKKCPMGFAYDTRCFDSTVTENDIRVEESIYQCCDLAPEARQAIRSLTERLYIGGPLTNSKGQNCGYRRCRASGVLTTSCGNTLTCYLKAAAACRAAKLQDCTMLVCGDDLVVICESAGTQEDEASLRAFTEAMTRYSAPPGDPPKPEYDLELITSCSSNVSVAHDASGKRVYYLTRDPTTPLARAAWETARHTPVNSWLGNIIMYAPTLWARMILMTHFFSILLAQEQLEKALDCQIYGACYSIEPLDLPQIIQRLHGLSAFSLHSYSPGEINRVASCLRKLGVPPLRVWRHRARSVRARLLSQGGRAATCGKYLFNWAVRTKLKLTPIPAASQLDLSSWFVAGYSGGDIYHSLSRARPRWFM
Method: HCV NS5B RdRp cloning, expression, and purification. The cDNA encoding the NS5B protein of HCV, genotype 1b, was cloned into the pET21a expression vector. The protein was expressed with an 18 amino acid C-terminal truncation to enhance the solubility. The E. coli competent cell line BL21(DE3) was used for expression of the protein. Cultures were grown at 37° C. for ˜4 hours until the cultures reached an optical density of 2.0 at 600 nm. The cultures were cooled to 20° C. and induced with 1 mM IPTG. Fresh ampicillin was added to a final concentration of 50 μg/ml and the cells were grown overnight at 20° C.
Cell pellets (3 L) were lysed for purification to yield 15-24 mgs of purified NS5B. The lysis buffer consisted of 20 mM Tris-HCl, pH 7.4, 500 mM NaCl, 0.5% triton X-100, 1 mM DTT, 1 mM EDTA, 20% glycerol, 0.5 mg/ml lysozyme, 10 mM MgCl2, 15 ug/ml deoxyribonuclease I, and Complete™ protease inhibitor tablets (Roche). After addition of the lysis buffer, frozen cell pellets were resuspended using a tissue homogenizer. To reduce the viscosity of the sample, aliquots of the lysate were sonicated on ice using a microtip attached to a Branson sonicator. The sonicated lysate was centrifuged at 100,000×g for 1 hr at 4° C. and filtered through a 0.2 μm filter unit (Corning).
The protein was purified using three sequential chromatography steps: Heparin sepharose CL-6B, polyU sepharose 4B, and Hitrap SP sepharose (Pharmacia). The chromatography buffers were identical to the lysis buffer but contained no lysozyme, deoxyribonuclease I, MgCl2 or protease inhibitor and the NaCl concentration of the buffer was adjusted according to the requirements for charging the protein onto the column. Each column was eluted with a NaCl gradient which varied in length from 5-50 column volumes depending on the column type. After the final chromatography step, the resulting purity of the enzyme is >90% based on SDS-PAGE analysis. The enzyme was aliquoted and stored at −80° C.
Standard HCV NS5B RdRp enzyme assay. HCV RdRp genotype 1b assays were run in a final volume of 60 μl in 96 well plates (Costar 3912). The assay buffer is composed of 20 mM Hepes, pH 7.5, 2.5 mM KCl, 2.5 mM MgCl2, 1 mM DTT, 1.6 U RNAse inhibitor (Promega N2515), 0.1 mg/ml BSA (Promega R3961), and 2% glycerol. All compounds were serially diluted (3-fold) in DMSO and diluted further in water such that the final concentration of DMSO in the assay was 2%. HCV RdRp genotype 1b enzyme was used at a final concentration of 28 nM. A polyA template was used at 6 nM, and a biotinylated oligo-dT12 primer was used at 180 nM final concentration. Template was obtained commercially (Amersham 27-4110). Biotinylated primer was prepared by Sigma Genosys. 3H-UTP was used at 0.6 μCi (0.29 μM total UTP). Reactions were initiated by the addition of enzyme, incubated at 30° C. for 60 min, and stopped by adding 25 μl of 50 mM EDTA containing SPA beads (4 μg/μl, Amersham RPNQ 0007). Plates were read on a Packard Top Count NXT after >1 hr incubation at room temperature.
Modified HCV NS5B RdRp enzyme assay. A modified enzyme assay was performed essentially as described for the standard enzyme assay except for the following: The biotinylated oligo dT12 primer was precaptured on streptavidin-coated SPA beads by mixing primer and beads in assay buffer and incubating at room temperature for one hour. Unbound primer was removed after centrifugation. The primer-bound beads were resuspended in 20 mM Hepes buffer, pH 7.5 and used in the assay at final concentrations of 20 nM primer and 0.67 μg/μl beads. Order of addition in the assay: enzyme (14 nM) was added to diluted compound followed by the addition of a mixture of template (0.2 nM), 3H-UTP (0.6 μCi, 0.29 μM), and primer-bound beads, to initiate the reaction; concentrations given are final. Reactions were allowed to proceed for 4 hours at 30° C.
IC50 values for compounds were determined using seven different [I]. […]

[2] = system: HCV replicon cells; assay: HCV replicon FRET assay; type: cell-based; conditions: Hepatitis C virus
Text: FRET Assay Preparation. To perform the HCV FRET screening assay, 96-well cell culture plates were used. The FRET peptide (Anaspec, Inc.) (Taliani et al., Anal. Biochem. 1996, 240, 60-67) contains a fluorescence donor, EDANS, near one end of the peptide and an acceptor, DABCYL, near the other end. The fluorescence of the peptide is quenched by […] resonance energy transfer (RET) between the donor and the acceptor, but as the NS3 protease cleaves the peptide the products are released from RET quenching and the fluorescence of the donor becomes apparent. The assay reagent was made as follows: 5× cell Luciferase cell culture lysis reagent from Promega (#E153A) diluted to 1× with dH2O, NaCl added to 150 mM final, the FRET peptide diluted to 20 μM final from a 2 mM stock.
To prepare plates, HCV replicon cells, with or without a Renilla luciferase reporter gene, were trypsinized and placed into each well of a 96-well plate with titrated test compounds added in columns 3 through 12; columns 1 and 2 contained a control compound (HCV protease inhibitor), and the bottom row contained cells without compound. The plates were then placed in a CO2 incubator at 37° C.
Assays. Subsequent to addition of the test compounds described above (FRET Assay Preparation), at various times the plate was removed and Alamar blue solution (Trek Diagnostics, #00-100) was added per well as a measure of cellular toxicity. After reading in a Cytoflour 4000 instrument (PE Biosystems), plates were rinsed with PBS and then used for FRET assay by the addition of 30 ul of the FRET peptide assay reagent described above (FRET Assay Preparation) per well. The plate was then placed into the Cytoflour 4000 instrument which had been set to 340 excite/490 emission, automatic mode for 20 cycles and the plate read in a kinetic mode. Typically, the signal to noise using an endpoint analysis after the reads was at least three-fold. Alternatively, after Alamar blue reading, plates were rinsed with PBS, 50 ul of DMEM (high glucose) without phenol red was added and plates were then used for luciferase assay using the Promega Dual-Glo Luciferase Assay System.
Compound analysis was determined by quantification of the relative HCV replicon inhibition and the relative cytotoxicity values. To calculate cytoxicity values, the average Alamar Blue fluorescence signals from the control wells were set as 100% non-toxic. The individual signals in each of the compound test wells were then divided by the average control signal and multiplied by 100% to determine […]. To calculate the HCV replicon inhibition values, an average background value was obtained from the two wells containing the highest amount of HCV protease inhibitor at the end of the assay period. These numbers were similar to those obtained from naïve Huh-7 cells.
The background numbers were then subtracted from the average signal obtained from the control wells and this number was used as 100% activity. The individual signals in each of the compound test wells were then divided by the averaged control values after background subtraction and multiplied by 100% to determine percent activity. EC50 values for a protease inhibitor titration were calculated as the concentration which caused a 50% reduction in FRET or luciferase activity. The two numbers generated for the compound plate, percent cytoxicity and percent activity were used to determine compounds of interest for further analysis.

[3] = preincubation protocol, read-out: IC50

Row | SMILES | IC50 [1, 3] | EC50 ([2]; FRET assay, read-out: EC50) | IC50 [1] | EC50 [2]
1 | COc1ccc2c(c1)C=C(c1ncccc1C(=O)N1CCCCC1)Cn1c-2c(C2CCCCC2)c2ccc(C(=O)O)cc21 | 0.00458 to 0.5 µM | 0.00458 to 0.5 µM |  | 
2 | COc1ccc2c(c1)C=C(c1cccc(N3CCOCC3)n1)Cn1c-2c(C2CCCCC2)c2ccc(C(=O)O)cc21 | > 0.5 µM | > 0.5 µM |  | 
3 | COc1ccc2c(c1)C=C(c1ncccc1N1CC(C)(C)C1=O)Cn1c-2c(C2CCCCC2)c2ccc(C(=O)O)cc21 | 0.00458 to 0.5 µM | 0.00458 to 0.5 µM |  | 
4 | COc1ccc2c(c1)C=C(c1ncccc1C(=O)N1CCC(O)CC1)Cn1c-2c(C2CCCCC2)c2ccc(C(=O)O)cc21 | 0.00458 to 0.5 µM | 0.00458 to 0.5 µM |  | 
5 | COc1ccc2c(c1)C=C(c1ccccc1CN1CCOCC1)Cn1c-2c(C2CCCCC2)c2ccc(C(=O)NS(=O)(=O)C(C)C)cc21 | 0.00458 to 0.5 µM | 0.00458 to 0.5 µM |  | 
6 | COc1ccc2c(c1)C=C(c1ccccc1S(=O)(=O)N1CCCC1)Cn1c-2c(C2CCCCC2)c2ccc(C(=O)NS(=O)(=O)C(C)C)cc21 | 0.00458 to 0.5 µM | > 0.5 µM |  | 
7 | COc1ccc2c(c1)C=C(c1c(F)cccc1C(F)(F)F)Cn1c-2c(C2CCCCC2)c2ccc(C(=O)NS(=O)(=O)C(C)C)cc21 | 0.00458 to 0.5 µM | 0.00458 to 0.5 µM |  | 
8 | COc1ccc2c(c1)C=C(c1cc(C(=O)N3CCOCC3)ccn1)Cn1c-2c(C2CCCCC2)c2ccc(C(=O)O)cc21 | > 0.5 µM | > 0.5 µM |  | 
9 | COc1ccc2c(c1)C=C(c1ccccc1C(=O)N1CCOCC1)Cn1c-2c(C2CCCCC2)c2ccc(C(=O)OC(C)(C)C)cc21 | > 0.5 µM | > 0.5 µM |  | 
10 | COc1ccc2c(c1)C=C(c1ncccc1N1CC(C)(C)C1=O)Cn1c-2c(C2CCCCC2)c2ccc(C(=O)NS(=O)(=O)N(C)C)cc21 | 0.00458 to 0.5 µM | 0.00458 to 0.5 µM |  | 
11 | COc1ccc2c(c1)C=C(c1ncccc1S(=O)(=O)N1C3CCC1CN(C)C3)Cn1c-2c(C2CCCCC2)c2ccc(C(=O)O)cc21 |  |  | > 0.5 µM | 0.00458 to 0.5 µM
12 | COc1ccc2c(c1)C=C(c1ncccc1C(=O)N1CCC(O)CC1)Cn1c-2c(C2CCCCC2)c2ccc(C(=O)NS(=O)(=O)N(C)C)cc21 | 0.00458 to 0.5 µM | 0.00458 to 0.5 µM |  | 
13 | COc1ccc2c(c1)C=C(c1ncccc1C(=O)N(C)C)Cn1c-2c(C2CCCCC2)c2ccc(C(=O)O)cc21 | 0.00458 to 0.5 µM | 0.00458 to 0.5 µM |  | 
14 | COc1ccc2c(c1)C=C(c1cccc(N3CCOCC3)n1)Cn1c-2c(C2CCCCC2)c2ccc(C(=O)NS(=O)(=O)N(C)C)cc21 | 0.00458 to 0.5 µM | 0.00458 to 0.5 µM |  | 
15 | COc1ccc2c(c1)C=C(c1ccccc1)Cn1c-2c(C2CCCCC2)c2ccc(C(=O)NS(=O)(=O)N(C)C)cc21 | 0.00458 to 0.5 µM | > 0.5 µM |  | 
